According to US7091347B2, “Bicyclic pyridine and pyrimidine p38 kinase inhibitors” (Roche Palo Alto LLC, priority 2002, dated 2006):
pIC50: −log10 of the molar value. Structures can show the parent of a compound that is named as a salt.

Legend:
[1] = target: T1, p38 MAP kinase (UniProt Q16539); assay: Inhibition of p-38 (MAP) kinase in vitro assay (transfer of γ-33P from ATP to Myelin Basic Protein); format: biochemical; details: phosphorylated recombinant p38 MAP kinase, MBP substrate, γ-33P-ATP, 30° C.
T1 construct: fused on or other part: A His tag is implied by purification on a nickel column
Procedure: The p-38 MAP kinase inhibitory activity of compounds of this invention in vitro was determined by measuring the transfer of the y-phosphate from γ-^33P-ATP by p-38 kinase to Myelin Basic Protein (MBP), using the a minor modification of the method described in Ahn, N. G.; et al. J. of Biol. Chem. Vol. 266(7), 4220–4227, (1991)
The phosphorylated form of the recombinant p38 MAP kinase was expressed with SEK-1 and MEKK in E. Coli (see, Khokhlatchev, A. et al. J. of Biol. Chem. Vol. 272(17), 11057–11062, (1997) and then purified by affinity chromatography using a Nickel column.
The phosphorylated p38 MAP kinase was diluted in kinase buffer (20 mM 3-(N-morpholino)propanesulfonic acid, pH 7.2, 25 mM β-glycerol phosphate, 5 mM ethylene glycol-bis(beta-aminoethyl ether)-N,N,N′,N′-tetraacetic acid, 1 mM sodium vanadate, 1 mM dithiothreitol, 40 mM magnesium chloride). Test compound dissolved in DMSO or only DMSO (control) was added and the samples were incubated for 10 min. at 30° C. The kinase reaction was initiated by the addition of a substrate cocktail containing MBP and γ-^33P-ATP. After incubating for an additional 20 min. at 30° C., the reaction was terminated by adding 0.75% phosphoric acid. The phosphorylated MBP was then separated from the residual γ-^33P-ATP using a phosphocellulose membrane (Millipore, Bedfrod, Mass.) and quantitated using a scintillation counter (Packard, Meriden, Conn.).
The p-38 inhibitory activities (expressed as IC50, the concentration causing 50% inhibition of the p-38 enzyme being analyzed) of the compounds listed in Table 1 in the specification are between 0.01 μM and 10 μM.

SMILES	melting point [°C]	pIC50 [1]
Fc1ccccc1Cc1cc2cnc(NC3CCOCC3)nc2s1 (as salt: hydrochloride) [Compound 25, 2-(tetrahydropyran-4-ylamino)-6-[(2-fluorophenyl)methyl]thieno[2,3-d]pyrimidine]	217 to 219	–
Cl.O=C(c1ccccc1)c1cc2cnc(NC3CCOCC3)nc2s1 [Compound 3]	219.5 to 220.5	6.66
O=C(c1cc2cnc(NC3CCOCC3)nc2s1)c1ccccc1F [Compound 9, 2-(tetrahydropyran-4-ylamino)-6-(2-fluorobenzoyl)thieno[2,3-d]pyrimidine]	195.2 to 195.5	–
c1ccc(Cc2cc3cnc(NC4CCCC4)nc3o2)cc1 [Compound 30, 2-(cyclopentylamino)-6-benzyl-furano[2,3-d]pyrimidine]	–	6.13
Cn1c(Cc2ccccc2)cc2cnc(NC3CCCC3)nc21 [Compound 33, 2-(cyclopentylamino)-6-benzyl-7-methyl-pyrrolo[2,3-d]pyrimidine]	–	6.87
Fc1ccc(Sc2cc3cnc(NC4CCOCC4)nc3s2)c(F)c1 [Compound 41, [6-(2,4-Difluorophenylsulfanyl)thieno[2,3-d]pyrimidin-2-yl]-(tetrahydropyran-4-yl)-amine]	–	6.65

Continued, values first:

melting point [°C]	pIC50 [1]	SMILES
102.6 to 103.8	6.98	O=C(c1ccccc1)c1cc2cnc(N[C@H]3CC[C@H](O)CC3)nc2s1 [Compound 1]
152.2 to 162.1	6.89	CS(=O)(=O)N1CCC(Nc2ncc3cc(C(O)c4ccccc4)sc3n2)CC1.Cl (centres unmarked) [Compound 23]
